12 molecules from US10077261B2, “Imidazolin-5-one derivative useful as FASN inhibitors for the treatment of cancer” (Janssen Pharmaceutica NV, priority 2012, dated 2018) can be followed below.

In experiment [1] the target is T1, hFASN enzyme (full length) (Homo sapiens, UniProt P49327).
T1 construct: 10 μL hFASN enzyme (full length, 300 ng, purified in house); made in house
The experiment can be described thus: Fatty Acid Synthase (FASN) inhibition scintillation proximity assay. Type of experiment: biochemical. The settings on record: for inhibition at 10 µM: read-out: Human FASN % inhibition @ 10 μM, 10 μM test compound; for IC50: read-out: Human FASN pIC50 (converted). An outline of the steps:
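Purified full-length hFASN (300 ng) converts ^3H-acetyl-CoA plus malonyl-CoA to ^3H-palmitate in 100 mM KH2PO4 pH 7.5, 1 mM DTT; compounds tested at 0.01–30 μM. Product captured on streptavidin imaging beads and read by LEADseeker at 610 nm after ≥24 h; 4-parameter logistic fit versus controls.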

For experiment [2], the system named is A2780 ovarian cells. The experiment can be described thus: A2780 ovarian cell proliferation assay in lipid reduced medium, without palmitate (MTT). Type of experiment: cell-based. The settings on record: Homo sapiens, A2780, 96 h; read-out: pIC50 A2780 Ovarian Cell, Without Palmitate (converted).
For experiment [3], the system named is PC-3M-Luc-C6 prostate cells. Nature of the experiment: In vitro PC-3M-Luc-C6 prostate cell proliferation assay in lipid reduced medium. Type of experiment: cell-based. The settings on record: 96 h, read-out: pIC50 PC-3M-Luc-C6 prostate cell (converted).
For experiment [4], the system named is LNCaP-Vancouver prostate cells. Nature of the experiment: In vitro LNCaP Vancouver prostate cell proliferation assay in lipid reduced medium. The class given is cell-based. The settings on record: read-out: pIC50 LNCaP_Vancouver prostate cell (converted).
Experiment [5] concerns A2780 ovarian cells. The experiment can be described thus: A2780 ovarian cell proliferation assay in lipid reduced medium, with palmitate (MTT). Type of experiment: cell-based. As to conditions: Homo sapiens, A2780, 96 h; read-out: pIC50 A2780 Ovarian Cell, With Palmitate (converted). An outline of the steps: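 Seeded cells were switched next day to lipid-reduced serum, exposed to compound and 25 μM palmitate complexed with fatty-acid-free BSA, and incubated 96 h. Proliferation was then determined by MTT absorbance at 544 nm, with a best-fit curve of signal against concentration.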

Experiment [6] deals with Fatty Acid Synthase Keto-reductase Domain (FASN KR) (Homo sapiens, UniProt P49327). Nature of the experiment: Fatty Acid Synthase keto-reductase domain (FASN KR) inhibition, NADPH oxidation at 340 nm.
Experimental: After 20 minutes incubation at room temperature the plate was measured again (T2).
The decrease in absorbance was calculated as (Absorbance before incubation T1)−(Absorbance following incubation T2).
A plot of Controlmin versus test compound concentration was fitted to a 4-parameter logistic curve using a non-linear least squares regression method.

Bounds are passed on as bounds.

T1 sequence (P49327 whole entry): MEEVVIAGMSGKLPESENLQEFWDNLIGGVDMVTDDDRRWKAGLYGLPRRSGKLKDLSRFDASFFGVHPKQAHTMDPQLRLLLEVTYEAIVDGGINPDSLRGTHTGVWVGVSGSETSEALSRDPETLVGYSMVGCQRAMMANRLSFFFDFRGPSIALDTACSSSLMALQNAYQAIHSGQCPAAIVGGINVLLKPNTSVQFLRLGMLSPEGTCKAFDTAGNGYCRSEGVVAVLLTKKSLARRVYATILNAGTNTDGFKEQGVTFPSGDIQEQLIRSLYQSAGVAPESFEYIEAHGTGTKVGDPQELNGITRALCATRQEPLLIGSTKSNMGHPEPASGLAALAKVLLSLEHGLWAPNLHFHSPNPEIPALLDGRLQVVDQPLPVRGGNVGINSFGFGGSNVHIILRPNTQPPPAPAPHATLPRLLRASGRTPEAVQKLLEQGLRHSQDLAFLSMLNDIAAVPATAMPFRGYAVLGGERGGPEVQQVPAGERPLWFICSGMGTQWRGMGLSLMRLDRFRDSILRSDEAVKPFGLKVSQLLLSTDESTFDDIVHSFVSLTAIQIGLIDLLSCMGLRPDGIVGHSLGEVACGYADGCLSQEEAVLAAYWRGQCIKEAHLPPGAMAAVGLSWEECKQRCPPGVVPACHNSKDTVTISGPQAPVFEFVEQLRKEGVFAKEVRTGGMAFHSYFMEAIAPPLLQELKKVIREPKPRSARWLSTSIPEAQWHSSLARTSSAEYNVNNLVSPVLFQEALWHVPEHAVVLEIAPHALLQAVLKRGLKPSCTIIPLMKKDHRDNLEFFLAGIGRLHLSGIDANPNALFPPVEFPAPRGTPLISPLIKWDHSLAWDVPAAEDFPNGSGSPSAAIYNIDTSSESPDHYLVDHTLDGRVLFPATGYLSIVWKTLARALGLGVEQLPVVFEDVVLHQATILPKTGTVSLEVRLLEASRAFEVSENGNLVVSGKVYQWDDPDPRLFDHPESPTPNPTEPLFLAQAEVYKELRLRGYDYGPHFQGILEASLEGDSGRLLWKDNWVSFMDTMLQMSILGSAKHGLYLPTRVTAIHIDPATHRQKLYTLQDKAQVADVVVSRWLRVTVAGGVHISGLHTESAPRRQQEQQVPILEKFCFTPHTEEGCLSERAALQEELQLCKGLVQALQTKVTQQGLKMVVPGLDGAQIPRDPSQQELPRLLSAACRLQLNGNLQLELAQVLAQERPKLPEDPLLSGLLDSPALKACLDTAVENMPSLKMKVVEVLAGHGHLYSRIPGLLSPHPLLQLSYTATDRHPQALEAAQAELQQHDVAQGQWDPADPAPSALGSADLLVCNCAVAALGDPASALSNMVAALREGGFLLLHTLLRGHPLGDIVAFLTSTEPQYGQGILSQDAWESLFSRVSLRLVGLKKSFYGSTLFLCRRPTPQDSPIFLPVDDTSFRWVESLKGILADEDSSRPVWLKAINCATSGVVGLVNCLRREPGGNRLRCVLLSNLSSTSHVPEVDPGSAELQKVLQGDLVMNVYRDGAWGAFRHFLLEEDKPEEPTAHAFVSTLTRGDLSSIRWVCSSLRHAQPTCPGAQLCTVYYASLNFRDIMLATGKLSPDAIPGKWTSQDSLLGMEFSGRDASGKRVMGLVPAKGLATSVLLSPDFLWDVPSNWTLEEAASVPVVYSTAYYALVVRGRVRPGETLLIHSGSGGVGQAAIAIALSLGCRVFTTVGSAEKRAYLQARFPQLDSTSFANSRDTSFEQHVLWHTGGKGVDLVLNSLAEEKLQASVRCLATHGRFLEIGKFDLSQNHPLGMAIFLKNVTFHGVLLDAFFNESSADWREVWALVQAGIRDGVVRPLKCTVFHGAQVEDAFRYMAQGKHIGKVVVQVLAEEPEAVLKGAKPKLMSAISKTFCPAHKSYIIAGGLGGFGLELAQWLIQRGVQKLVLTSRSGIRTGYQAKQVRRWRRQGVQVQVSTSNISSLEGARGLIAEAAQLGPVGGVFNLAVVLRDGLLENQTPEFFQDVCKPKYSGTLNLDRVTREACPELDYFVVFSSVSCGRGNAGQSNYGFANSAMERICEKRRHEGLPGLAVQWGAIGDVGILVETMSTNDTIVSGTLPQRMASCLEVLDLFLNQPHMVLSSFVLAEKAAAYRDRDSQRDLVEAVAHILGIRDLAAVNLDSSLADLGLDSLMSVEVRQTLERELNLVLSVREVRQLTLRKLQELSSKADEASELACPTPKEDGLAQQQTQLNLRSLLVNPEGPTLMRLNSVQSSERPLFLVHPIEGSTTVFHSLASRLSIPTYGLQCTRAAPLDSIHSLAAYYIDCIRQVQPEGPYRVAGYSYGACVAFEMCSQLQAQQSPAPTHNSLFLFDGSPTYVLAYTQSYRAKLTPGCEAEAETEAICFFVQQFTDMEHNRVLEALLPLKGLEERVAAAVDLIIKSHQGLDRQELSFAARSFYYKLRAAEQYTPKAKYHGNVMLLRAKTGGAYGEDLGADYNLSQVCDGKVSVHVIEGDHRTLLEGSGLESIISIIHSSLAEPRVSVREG
Fatty Acid Synthase Keto-reductase Domain (FASN KR), sequence (P49327 whole entry, the tested form may be a part): as the sequence (P49327 whole entry) above

As a reminder, the inhibition is the relative decrease from the control value, in per cent. `Cn1cnc2cc(-c3ccc(C4=NC5(CC5)C(=O)N4CC4CN(C(=O)C5(O)CC5)C4)c(F)c3)ccc21` [compound 377, 5-(2-fluoro-4-(1-methyl-1H-benzo[d]imidazol-5-yl)phenyl)-6-((1-(1-hydroxycyclopropanecarbonyl)azetidin-3-yl)methyl)-4,6-diazaspiro[2.4]hept-4-en-7-one]: the inhibition at 10 µM in experiment [1] was found to be 100%. In addition, the IC50 is 35.5 nM in experiment [1]; 22.9 nM with A2780 ovarian cells [2]; 28.2 nM in experiment [3]; 81.3 nM in experiment [4]; > 10000 nM in the experiment with A2780 ovarian cells [5]; ~36.3 nM in experiment [6].

Consider `Cn1cnc2cc(-c3ccc(C4=NC5(CC5)C(=O)N4CC4CN(C(=O)C5(C)CC5)C4)c(F)c3)ccc21` [compound 378, 5-(2-fluoro-4-(1-methyl-1H-benzo[d]imidazol-5-yl)phenyl)-6-((1-(1-methylcyclopropanecarbonyl)azetidin-3-yl)methyl)-4,6-diazaspiro[2.4]hept-4-en-7-one], for which, in experiment [1], the inhibition at 10 µM turned out to be 100%. The IC50 is 38.9 nM in experiment [1]; ~5.13 nM in the experiment with A2780 ovarian cells [2]; 10.5 nM in experiment [3]; 74.1 nM in experiment [4]; > 10000 nM in the experiment on A2780 ovarian cells [5]; 45.7 nM in experiment [6].

Take `Cn1cc(-c2ccc(-c3ccc(C4=NC5(CC5)C(=O)N4C[C@@H]4CCN(C(=O)C5(O)CC5)C4)c(F)c3)cc2)cn1` [compound 379, (R)-5-(3-fluoro-4′-(1-methyl-1H-pyrazol-4-yl)-[1,1′-biphenyl]-4-yl)-6-((1-(1-hydroxycyclopropanecarbonyl)pyrrolidin-3-yl)methyl)-4,6-diazaspiro[2.4]hept-4-en-7-one]: the inhibition at 10 µM in experiment [1] turned out to be 102%. In addition, the IC50 in experiment [1] was 20 nM; in the experiment on A2780 ovarian cells [2], ~1.07 nM; in experiment [3], ~2.45 nM; in experiment [4], 5.01 nM; in the experiment with A2780 ovarian cells [5] it was > 10000 nM; in experiment [6] it was 27.5 nM.

`COc1cccc2ccc(-c3ccc(C4=NC5(CC5)C(=O)N4CC4CN(C(=O)C5CC5)C4)c(F)c3)cc12` [compound 380, 6-((1-(cyclopropanecarbonyl)azetidin-3-yl)methyl)-5-(2-fluoro-4-(8-methoxynaphthalen-2-yl)phenyl)-4,6-diazaspiro[2.4]hept-4-en-7-one]: in experiment [1], the inhibition at 10 µM stood at 100%. The IC50 in experiment [1] was 66.1 nM; with A2780 ovarian cells [2], 132 nM; in experiment [3] it was 309 nM; in experiment [4], 1150 nM; in the experiment with A2780 ovarian cells [5], > 10000 nM; in experiment [6] it was 95.5 nM.

Turning to `O=C(N1CC[C@@H](CN2C(=O)C3(CC3)N=C2c2ccc(-c3ccc4cc(F)ccc4c3)cc2F)C1)C1(O)CC1` [compound 381, (R)-5-(2-fluoro-4-(6-fluoronaphthalen-2-yl)phenyl)-6-((1-(1-hydroxycyclopropanecarbonyl)pyrrolidin-3-yl)methyl)-4,6-diazaspiro[2.4]hept-4-en-7-one], the inhibition at 10 µM in experiment [1] worked out at 98%. In addition, the IC50 in experiment [1] is 22.9 nM; in the experiment on A2780 ovarian cells [2] it was ~2.51 nM; in experiment [3] it was 1.91 nM; in experiment [4], 10.5 nM; in the experiment with A2780 ovarian cells [5], > 10000 nM; in experiment [6], 35.5 nM.

For the molecule `Cn1cc(-c2ccc(-c3ccc(C4=NC5(CC5)C(=O)N4CC4CN(C(=O)C5(O)CC5)C4)c(F)c3)cc2)cn1` [compound 382, 5-(3-fluoro-4′-(1-methyl-1H-pyrazol-4-yl)-[1,1′-biphenyl]-4-yl)-6-((1-(1-hydroxycyclopropanecarbonyl)azetidin-3-yl)methyl)-4,6-diazaspiro[2.4]hept-4-en-7-one], in experiment [1], the inhibition at 10 µM amounted to 99%. For the same molecule, the IC50 was 25.1 nM in experiment [1]; ~6.76 nM in the experiment on A2780 ovarian cells [2]; 26.9 nM in experiment [3]; 55 nM in experiment [4]; > 10000 nM with A2780 ovarian cells [5]; 66.1 nM in experiment [6].

As to `O=C(N1CC(CN2C(=O)C3(CC3)N=C2c2ccc(-c3ccc4cc(Cl)ccc4c3)cc2F)C1)C1(O)CC1` [compound 383, 5-(4-(6-chloronaphthalen-2-yl)-2-fluorophenyl)-6-((1-(1-hydroxycyclopropanecarbonyl)azetidin-3-yl)methyl)-4,6-diazaspiro[2.4]hept-4-en-7-one], the inhibition at 10 µM in experiment [1] was 102%. Also, the IC50 in experiment [1] is 24 nM; in the experiment with A2780 ovarian cells [2] it was 10.5 nM; in experiment [3], ~18.2 nM; in experiment [4], 50.1 nM; with A2780 ovarian cells [5], ~4680 nM; in experiment [6], 61.7 nM.

Take `O=C(N1CC(CN2C(=O)C3(CC3)N=C2c2ccc(-c3ccc4ccc(F)cc4c3)cc2F)C1)C1(O)CC1` [compound 384, 5-(2-fluoro-4-(7-fluoronaphthalen-2-yl)phenyl)-6-((1-(1-hydroxycyclopropanecarbonyl)azetidin-3-yl)methyl)-4,6-diazaspiro[2.4]hept-4-en-7-one]: the inhibition at 10 µM in experiment [1] was 100%. Further, the IC50 in experiment [1] was 63.1 nM; with A2780 ovarian cells [2], 72.4 nM; in experiment [3] it was 166 nM; in experiment [4], 832 nM; with A2780 ovarian cells [5], 5250 nM; in experiment [6], ~851 nM.

Take `CC1(C(=O)N2CC(CN3C(=O)C4(CC4)N=C3c3ccc(-c4ccc5cc(C#N)ccc5c4)cc3F)C2)CC1` [compound 385, 6-(3-fluoro-4-(6-((1-(1-methylcyclopropanecarbonyl)azetidin-3-yl)methyl)-7-oxo-4,6-diazaspiro[2.4]hept-4-en-5-yl)phenyl)-2-naphthonitrile]: the inhibition at 10 µM in experiment [1] came out at 103%. Besides, the IC50 was 22.9 nM in experiment [1]; ~3.63 nM with A2780 ovarian cells [2]; ~4.79 nM in experiment [3]; 18.6 nM in experiment [4]; ~2570 nM with A2780 ovarian cells [5]; 43.7 nM in experiment [6].

On to `O=C(C1CC1)N1CC[C@@H](CN2C(=O)C3(CC3)N=C2c2ccc(-c3ccc4occc4c3)cn2)C1` [compound 390, 5-[5-(1-Benzofuran-5-yl)pyridin-2-yl]-6-{[(3R)-1-(cyclopropylcarbonyl)pyrrolidin-3-yl]methyl}-4,6-diazaspiro[2.4]hept-4-en-7-one], for which the inhibition at 10 µM in experiment [1] is 99%. Also, the IC50 in experiment [1] was 324 nM; with A2780 ovarian cells [2] it was ~2630 nM; in experiment [3] it was 1480 nM; in experiment [4], 2750 nM; with A2780 ovarian cells [5] it was > 10000 nM; in experiment [6] it was 676 nM.

Take `Cc1cc2cc(-c3ccc(C4=NC5(CC5)C(=O)N4CC4CN(C(=O)C5CC5)C4)c(C)c3)ccc2s1` [compound 391, 6-{[1-(Cyclopropylcarbonyl)azetidin-3-yl]methyl}-5-[2-methyl-4-(2-methyl-1-benzothiophen-5-yl)phenyl]-4,6-diazaspiro[2.4]hept-4-en-7-one]: in experiment [1], the inhibition at 10 µM was found to be 104%. In addition, the IC50 in experiment [1] was 129 nM; with A2780 ovarian cells [2] it was 1170 nM; in experiment [3], 724 nM; in experiment [4] it was 1700 nM; in the experiment with A2780 ovarian cells [5], > 10000 nM; in experiment [6], 389 nM.

As for `Cc1cc(C2=NC3(CC3)C(=O)N2CC2CN(C(=O)C3CC3)C2)ccc1-c1ccc2sccc2c1` [compound 392, 5-[4-(1-Benzothiophen-5-yl)-3-methylphenyl]-6-{[1-(cyclopropylcarbonyl)azetidin-3-yl]methyl}-4,6-diazaspiro[2.4]hept-4-en-7-one], the inhibition at 10 µM in experiment [1] came to 91%. For the same molecule, the IC50 in experiment [1] is 245 nM; in the experiment with A2780 ovarian cells [2], 2510 nM; in experiment [3], 1620 nM; in experiment [4], ~1700 nM; in the experiment on A2780 ovarian cells [5], > 10000 nM; in experiment [6], 871 nM.
